Marks after values point to notes of the source that are not given here.
Assays:
[1] = Plasma pharmacokinetics after single dose in normal rats; assay type: in vivo, Sprague-Dawley rats; conditions: rat plasma, i.v. 10 mg/kg
Experimental: (§1) (IV) Pharmacokinetic Studies
(§2) The pharmacokinetic studies in Sprague-Dawley rats were performed using the protocols developed by WuXi AppTec (St. Paul, Minn., USA, and Shanghai, China. http://www.apptecls.com/).

[2] = Brain-plasma pharmacokinetics after single 10 mg/kg bolus i.v. injection in normal rats; assay type: in vivo, Sprague-Dawley rats; conditions: rat, 10 mg/kg i.v., the data is the value of AUC(inf)
Experimental: as §1, §2
The brain exposure of the compound of Example 1 is about […] higher than that required for inhibition of DYRK1A, with a Kd and IC50 at about 1 uM, or 280 ng/mL.

Which Co [1] does the source give for `Cc1nc2c(c3c1[nH]c1ccccc13)C(=O)CC(C)(C)C2` [Example 1, 3,3,6-trimethyl-2,3,4,7-tetrahydroindolo[2,3-c]quinolin-1-one] here?
Its Co is 4100 ng/mL.

And the “AUC0-t of Plasma” value ([2]; time 8 h)?
The value was 2350^b ng · h/mL.

What about the “AUC0-t of Plasma” value ([2]; time 24 h) of the same compound?
The value was 2350^b ng · h/mL.

From US20110136844A1, “METHODS FOR INHIBITING DYRK1A TO TREAT CENTRAL NERVOUS SYSTEM DISEASES AND DISORDERS” (MediProPharma, Inc., priority 2009, published 2011)
